Data from PubChem BioAssay (NCI).
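Method: 48-hour compound exposure of cells in 96-well plates, five concentrations, linear interpolation of endpoints. TGI denotes the concentration required for complete inhibition of growth.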

How the values were obtained:
Assay in all cases: inhibition of tumour cell growth, NCI panel, 48 h
[1] = system: OVCAR-8 ovarian
[2] = system: CCRF-CEM leukemia
[3] = system: RXF 393 renal
[4] = system: NCI-H522 lung
[5] = system: SK-MEL-5 melanoma
[6] = system: SK-OV-3 ovarian
[7] = system: BT-549 breast
[8] = system: A498 renal
[9] = system: SR leukemia
[10] = system: MCF7 breast
[11] = system: T-47D breast
[12] = system: UACC-257 melanoma
[13] = system: U251 CNS
[14] = system: SNB-19 CNS
[15] = system: SF-268 CNS
[16] = system: MDA-MB-231 breast
[17] = system: SK-MEL-2 melanoma
[18] = system: SW-620 colon
[19] = system: MDA-MB-435
[20] = system: MDA-N
[21] = system: HL-60(TB) leukemia
[22] = system: K-562 leukemia
[23] = system: RPMI-8226 leukemia
[24] = system: NCI-H460 lung
[25] = system: UO-31 renal
[26] = system: SN12C renal
[27] = system: DU-145 prostate
[28] = system: M14 melanoma
[29] = system: SF-539 CNS
[30] = system: NCI-H23 lung
[31] = system: NCI/ADR-RES ovarian
[32] = system: HCT-15 colon
[33] = system: HOP-62 NSCLC
[34] = system: A549 NSCLC
[35] = system: TK-10 renal
[36] = system: OVCAR-4 ovarian
[37] = system: HOP-92 NSCLC
[38] = system: LOX IMVI melanoma
[39] = system: SF-295 CNS
[40] = system: IGROV1 ovarian
[41] = system: 786-0 renal
[42] = system: HCT-116 colon
[43] = system: OVCAR-5 ovarian
[44] = system: ACHN renal
[45] = system: CAKI-1 renal
[46] = system: HT29 colon
[47] = system: KM12 colon
[48] = system: MOLT-4 leukemia
[49] = system: NCI-H226 lung

CCN(CC)c1ccc2cc(-c3nc4ccccc4n3C)c(=O)oc2c1
TGI [1]: > 100 µM
TGI [2]: > 100 µM
TGI [3]: 63.1 µM
TGI [4]: 0.661 µM
TGI [5]: 3.42 µM
TGI [6]: 43.6 µM
TGI [7]: 0.861 µM
TGI [8]: 0.187 µM
TGI [9]: > 100 µM
TGI [10]: > 100 µM
TGI [11]: > 100 µM
TGI [12]: > 100 µM
TGI [13]: > 41.9 µM
TGI [14]: > 100 µM
TGI [15]: > 100 µM
TGI [16]: > 54.3 µM
TGI [17]: 0.68 µM
TGI [18]: > 100 µM
TGI [19]: 0.334 µM
TGI [20]: 0.135 µM
TGI [21]: > 100 µM
TGI [22]: > 100 µM
TGI [23]: > 31.6 µM
TGI [24]: 4.36 µM
TGI [25]: > 100 µM
TGI [26]: > 100 µM
TGI [27]: > 24.2 µM
TGI [28]: > 100 µM
TGI [29]: 0.545 µM
TGI [30]: 29.3 µM
TGI [31]: 0.727 µM
TGI [32]: > 100 µM
TGI [33]: 29.8 µM
TGI [34]: > 100 µM
TGI [35]: > 100 µM
TGI [36]: > 100 µM
TGI [37]: > 100 µM
TGI [38]: > 100 µM
TGI [39]: > 100 µM
TGI [40]: 4.79 µM
TGI [41]: > 48.7 µM
TGI [42]: > 100 µM
TGI [43]: > 100 µM
TGI [44]: > 100 µM
TGI [45]: > 100 µM
TGI [46]: 11 µM
TGI [47]: > 100 µM
TGI [48]: > 100 µM
TGI [49]: 1.46 µM
